Data as given in ChEMBL document CHEMBL1141382, “Studies leading to potent, dual inhibitors of Bcl-2 and Bcl-xL” (J Med Chem, 2007).
pEC50, pIC50, pKi: −log10 of the molar value.

Key:
[1] = Reversal of cytokine withdrawal protection in IL3 dependent Bcl-xL overexpressing mouse FL5.12 cells
FL5.12 = assay: Reversal of cytokine withdrawal protection in IL3 dependent Bcl-xL overexpressing mouse FL5.12 cells in presence of 3% FBS; assay type: functional
Bcl-2-like protein 1 [2] = target: T1, Bcl-2-like protein 1 (Homo sapiens, UniProt Q07817); assay: Displacement of Bad-derived peptide from Bcl-xL by FPA in presence of 10% human serum
Bcl-2-like protein 1 [3] = target: T1, Bcl-2-like protein 1; assay: Displacement of Bad-derived peptide from Bcl-xL by fluorescence polarization assay
[4] = target: Apoptosis regulator Bcl-2 (Homo sapiens, UniProt P10415); assay: Displacement of Bax-derived peptide from Bcl2 by fluorescence polarization assay
Chain of Apoptosis regulator Bcl-2 (P10415 whole entry): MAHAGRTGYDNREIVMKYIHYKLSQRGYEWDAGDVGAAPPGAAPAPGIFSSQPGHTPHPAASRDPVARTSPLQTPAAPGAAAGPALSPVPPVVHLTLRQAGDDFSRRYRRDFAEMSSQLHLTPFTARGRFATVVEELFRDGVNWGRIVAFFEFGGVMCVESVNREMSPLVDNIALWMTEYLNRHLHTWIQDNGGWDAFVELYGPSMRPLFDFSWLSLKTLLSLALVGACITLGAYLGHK

T1 sequence (Q07817 whole entry): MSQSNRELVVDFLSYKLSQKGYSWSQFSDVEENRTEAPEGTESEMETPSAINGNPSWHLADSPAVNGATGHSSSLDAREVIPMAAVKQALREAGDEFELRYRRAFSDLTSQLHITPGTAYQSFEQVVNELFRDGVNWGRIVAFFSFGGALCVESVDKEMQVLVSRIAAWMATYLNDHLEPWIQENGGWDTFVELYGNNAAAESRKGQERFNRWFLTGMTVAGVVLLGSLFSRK

In the case of CN(C)CC[C@H](CSc1ccccc1)Nc1ccc(S(=O)(=O)NC(=O)c2ccc(N3CCC(C)(C)CC3)cc2)cc1[N+](=O)[O-], the pEC50 [1] was 6.33, the pEC50 (FL5.12) was 5.29 and the pIC50 (Bcl-2-like protein 1 [2]) was 6.44.
With CN(C)CC[C@H](CSc1ccccc1)Nc1ccc(S(=O)(=O)NC(=O)c2ccc(N3CCN(Cc4ccccc4-c4ccc(F)cc4)CC3)cc2)cc1[N+](=O)[O-] the pKi (Bcl-2-like protein 1 [3]) was greater than 9.30, the pEC50 (FL5.12) was 6.15 and the pIC50 (Bcl-2-like protein 1 [2]) was greater than 7.22. The pKi [4] was greater than 9.00.
With CN(C)CC[C@H](CSc1ccccc1)Nc1ccc(S(=O)(=O)NC(=O)c2ccc(N3CCN(Cc4ccccc4-c4cccc(Cl)c4)CC3)cc2)cc1[N+](=O)[O-] the pKi (Bcl-2-like protein 1 [3]) was greater than 9.30, the pEC50 (FL5.12) was 5.55 and the pIC50 (Bcl-2-like protein 1 [2]) was 6.85. For the same molecule, the pKi [4] was 7.77.
Molecule CN(C)CC[C@H](CSc1ccccc1)Nc1ccc(S(=O)(=O)NC(=O)c2ccc(N3CCN(Cc4ccccc4-c4ccccc4Cl)CC3)cc2)cc1[N+](=O)[O-] has a pKi (Bcl-2-like protein 1 [3]) greater than 9.30, a pEC50 (FL5.12) of 5.60 and a pIC50 (Bcl-2-like protein 1 [2]) greater than 7.22. It also gave a pKi [4] greater than 9.00.
In the case of CN(C)CC[C@H](CSc1ccccc1)Nc1ccc(S(=O)(=O)NC(=O)c2ccc(N3CCN(Cc4ccccc4-c4ccc(-c5ccccc5)cc4)CC3)cc2)cc1[N+](=O)[O-], the pKi (Bcl-2-like protein 1 [3]) was 9.00, the pEC50 (FL5.12) was 6.92 and the pIC50 (Bcl-2-like protein 1 [2]) was 7.00. For the same molecule, the pKi [4] was greater than 9.00.
In the case of COc1cccc(-c2ccccc2CN2CCN(c3ccc(C(=O)NS(=O)(=O)c4ccc(N[C@H](CCN(C)C)CSc5ccccc5)c([N+](=O)[O-])c4)cc3)CC2)c1, the pKi (Bcl-2-like protein 1 [3]) was greater than 9.30, the pEC50 (FL5.12) was 5.35 and the pIC50 (Bcl-2-like protein 1 [2]) was 6.75. The pKi [4] was greater than 9.00.
COc1ccc(-c2ccccc2CN2CCN(c3ccc(C(=O)NS(=O)(=O)c4ccc(N[C@H](CCN(C)C)CSc5ccccc5)c([N+](=O)[O-])c4)cc3)CC2)cc1 showed a pKi (Bcl-2-like protein 1 [3]) greater than 9.30, a pEC50 (FL5.12) of 6.15 and a pIC50 (Bcl-2-like protein 1 [2]) greater than 7.22. It also gave a pKi [4] greater than 9.00.
